Measurements reported in ChEMBL document CHEMBL5728023, “Inhibitors of TRPC6” (2020).

Molecular target: T1, Short transient receptor potential channel 6 (Homo sapiens, UniProt Q9Y210)
T1 sequence (Q9Y210 whole entry): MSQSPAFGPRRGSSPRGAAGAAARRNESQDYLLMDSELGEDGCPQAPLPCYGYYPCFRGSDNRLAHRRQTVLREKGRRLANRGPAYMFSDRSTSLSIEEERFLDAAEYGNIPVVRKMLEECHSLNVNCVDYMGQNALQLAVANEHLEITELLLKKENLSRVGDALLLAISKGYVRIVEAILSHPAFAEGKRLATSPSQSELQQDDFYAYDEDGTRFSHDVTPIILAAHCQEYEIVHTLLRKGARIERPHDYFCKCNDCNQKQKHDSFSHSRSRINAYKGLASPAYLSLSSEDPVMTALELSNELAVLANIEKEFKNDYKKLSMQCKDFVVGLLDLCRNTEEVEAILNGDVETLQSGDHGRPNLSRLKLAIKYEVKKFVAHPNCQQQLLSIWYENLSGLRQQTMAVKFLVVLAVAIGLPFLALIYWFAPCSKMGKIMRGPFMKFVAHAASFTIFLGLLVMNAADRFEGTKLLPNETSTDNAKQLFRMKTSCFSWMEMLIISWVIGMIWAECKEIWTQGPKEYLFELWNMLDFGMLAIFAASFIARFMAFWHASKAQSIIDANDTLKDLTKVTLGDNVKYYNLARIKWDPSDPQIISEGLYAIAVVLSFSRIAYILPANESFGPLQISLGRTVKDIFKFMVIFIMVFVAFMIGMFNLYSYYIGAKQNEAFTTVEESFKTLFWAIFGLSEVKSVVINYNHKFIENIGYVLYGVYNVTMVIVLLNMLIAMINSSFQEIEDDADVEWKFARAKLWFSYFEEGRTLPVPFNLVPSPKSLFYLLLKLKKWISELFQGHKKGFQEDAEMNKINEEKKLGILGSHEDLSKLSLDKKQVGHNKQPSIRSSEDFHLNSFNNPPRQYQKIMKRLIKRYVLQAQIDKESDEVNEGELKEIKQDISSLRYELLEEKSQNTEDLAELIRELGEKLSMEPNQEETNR
Assay: High Throughput Screening Assay: This screening assay measures TRPC6 (transient receptor potential cation channel, subfamily C, member 6) ion channel activation via addition either of the commercially available DAG ligand analogue OAG (1-oleoyl-2-acetyl-sn-glycerol) or of the TRPC6 agonist 1-[1-(4,5,6,7,8-pentahydrocyclohepta[2,1-d]thiophen-2-ylcarbonyl)-4-piperidyl]-3-hydrobenzimidazol-2-one (GSK1702934A). The assay utilizes a FLIPR fluorescent calcium sensor 4-(6-Acetoxymethoxy-2,7-difluoro-3-oxo-9-xanthenyl)-4′-methyl-2,2′-(ethylenedioxy)dianiline-N,N,N′,N′-tetraacetic acid tetrakis(acetoxymethyl) ester (Fluo4/AM) […]. Changes (increases) in intracellular membrane calcium concentration potential as measured by the fluorescent signal increase during membrane depolarization provide a measurement of channel activity.The commercially available HEK293/TREx line (Invitrogen) was stably transfected with a TRPC6 construct and screened by conventional calcium imaging to find clones with TRPC6 expression following stimulation with 1 μg/ml tetracycline. These cells were maintained in the growth medium recommended by the manufacturer supplemented with 100 μg/ml hygromycin to promote retention of the TRPC6 construct. […]
Format: cell membranes

SMILES: CCOc1cc(C(=O)N2C3CCC2CC(c2ccc(N)nn2)C3)ncc1Oc1ccc(F)cc1 (stereo unspecified)
- IC50: 2100 nM
